Experimental findings from US20170044100A1, “INHIBITORS OF DRUG-RESISTANT MYCOBACTERIUM TUBERCULOSIS” (THE JOHNS HOPKINS UNIVERSITY, priority 2014, published 2017) are described below.

One may read the IC50 as the concentration at which inhibition is half-maximal.

Values after ≈ are worked out from the molar mass of the structure shown. Like-named read-outs stand apart in the source and are kept apart here.

In series [1] the test system is M. tuberculosis strain H37Rv. As to the kind of experiment: microbe, parasite or virus in culture. The format is cell-based, Mycobacterium tuberculosis. Further details: MICMABA: unit not given here. As to conditions: for MICMABA: H37Rv, MABA, Table 9; for MIC: Mycobacterium tuberculosis.
A further series deals with Vero cells. As to the kind of experiment: Cytotoxicity assay on Vero cells (alamar blue). The settings on record: for IC50: Chlorocebus sabaeus, Vero. For orientation: The colour change of resazurin is a common sign of viable cells or microbes.
Series [2] can be described thus: Cytotoxicity assay on Vero cells (alamar blue). As to conditions: African green monkey, Vero cells (ATCC CCL-81).
The test system of series [3] is M. tuberculosis H37Rv. Type of series: cell-based, Mycobacterium tuberculosis. As to conditions: 4× MIC.
Details of series [4]: species or system BALB/c mice. The settings on record: mouse, in vivo. On the procedure:
Female BALB/c mice (20 g each, Charles River Laboratories) were given a single dose of compound 12 at 100 mg/kg by oral gavage in a volume of 0.2 mL. […] Mouse lungs were removed, weighed and stored at −80° C. Plasma was separated by centrifugation at 12,000 x g for 20 min at 4° C. and stored at −80° C. Mouse lungs were homogenized by bead-beating in 0.5 mL of liquid chromatography/mass spectrometry (LC/MS) water and supernatants were recovered by centrifugation at 4° C. for 20 min. Concentrations of compound 12 in plasma and lung homogenate supernatants were analyzed with LC-tandem MS (LC-MS/MS, AB SCIEX QTRAP 5500 system) with compound 2 as internal standard. MS detection of mass transitions 299.01/146.1 and 299.01/131.1 was carried out. Concentration calculation was done with MultiQuant Software (Version 2.1, AB SCIEX). The pharmacokinetic profile of the test compound was analyzed from plasma and lung concentration-time data after oral administration.
A single 100 mg/kg dose of compound 12 was administered to 24 mice (3 per time point). Plasma and lung concentration of compound 12 was determined by liquid chromatography-tandem mass spectrometry.

Series [5] relates to M. tuberculosis H37Rv. The format is in vivo, BALB/c mice.
The subject of series [6] is V4207 (drug susceptible strain of M. tuberculosis). Nature of the series: microbe, parasite or virus in culture. The format is cell-based. The settings on record: Mycobacterium tuberculosis, MABA, read-out: MIC V4207 (DS).
For series [7], the system named is M. tuberculosis H37Rv. Nature of the series: microbe, parasite or virus in culture. The format is cell-based, Mycobacterium tuberculosis. The settings on record: for MBC: Mycobacterium tuberculosis, H37RV, read-out: minimum bactericidal concentration (MBC); for MBCBD / MICBD: H37Rv, broth dilution, Table 9. Further details: MICBD / MBCBD: unit not given here.
A short description of another series: in vitro. As to conditions: African green monkey, IC50 (cytotoxicity against Vero cells), Table 1.
The test system of series [8] is M. tuberculosis H37Rv. The settings on record: 100 mg/kg oral gavage.
Where [9] appears, read: control strains H37Rv and V4207, read-out: MIC.
Where [10] appears, read: parental H37Rv strain, read-out: MIC for H37Rv.
The mark [11] stands for this setting: read-out: IC50 Vero Cells, Vero cells, Table 9.

`Cc1cc(C)c2cc(C(=O)NC3CCCCCCC3)[nH]c2c1` [Compound 12, N-Cyclooctyl-4,6-dimethyl-1H-indole-2-carboxamide]: the MICMABA in series [1] is on record as 0.0039. The MIC in [1] (H37RV) is 0.013 µM; in [1] (setting [9]), 0.0039 µg/mL; in series [1] (setting [10]), 0.0039 µg/mL; in [6], 0.026 µM (≈ 0.00776 µg/mL). For the same molecule, the “MIC for H37Rv” value in series [1] (parental H37Rv strain) is 0.0039 µg/mL. In addition, the half-inhibitory concentration (IC50) in the series on Vero cells (read-out: IC50 Vero Cells) worked out at 16 µg/mL (≈ 53.6 µM). The “Selectivity Index” value in the series with Vero cells (Vero IC50 versus MIC, Table 9) came out at 4000. In addition, in the series on Vero cells (toxicity versus MIC), the selectivity index is 4000. In series [2], this molecule came in with a half-maximal inhibitory concentration (IC50) at 72 h of 54 µM. For the same molecule, in the series on M. tuberculosis H37Rv [3], the “time to kill at least 4 log10 CFUs” value was at most 5 days. Further, in series [4], the “oral bioavailability in mice” value was “orally bioavailable”. Besides, the “AUC0-24, lung” value in series [4] (po, 100 mg/kg) was found to be 31.40 mg·h/kg. Besides, the “Mean lung CFU counts (standard deviation), Day 7” value in the series on M. tuberculosis H37Rv [5] (33.3 mg/kg oral gavage daily (5 days per week)) is given as 7.184 (0.244); in the series with M. tuberculosis H37Rv [5] (100 mg/kg oral gavage daily) it was 6.902 (0.243); in the series on M. tuberculosis H37Rv [5] (300 mg/kg oral gavage daily) it was 6.768 (0.329). For the same molecule, the “Mean lung CFU counts (standard deviation), Day 14” value with M. tuberculosis H37Rv [5] (33.3 mg/kg oral gavage daily) is recorded as 7.001 (0.206); in the series on M. tuberculosis H37Rv [5] (100 mg/kg oral gavage daily), 7.122 (0.148); in the series with M. tuberculosis H37Rv [5] (300 mg/kg oral gavage daily), 6.981 (0.305). For the same molecule, the “Mean lung CFU counts (standard deviation), Day 28” value with M. tuberculosis H37Rv [5] (33.3 mg/kg oral gavage daily) is listed as 6.919 (0.112); with M. tuberculosis H37Rv [5] (100 mg/kg oral gavage daily) it was 6.803 (0.068); in the series on M. tuberculosis H37Rv [5] (300 mg/kg oral gavage daily), 6.746 (0.157). In addition, the “lung CFU counts compared to untreated mice” value with M. tuberculosis H37Rv [5] (after four weeks of treatment, 33, 100 and 300 mg/kg daily oral gavage) was “significantly lower”. In addition, in the series with M. tuberculosis H37Rv [7], the MBC turned out to be 0.0078 µg/mL (≈ 0.0261 µM).

In the case of `Cc1cc(C)c2cc(C(=O)NC3CCCCC3)[nH]c2c1` [Compound 3, N-Cyclohexyl-4,6-dimethyl-1H-indole-2-carboxamide], in [1], the MICMABA is listed as 0.125. Also, the MIC in series [1] (H37RV) was 0.93 µM; in series [1] (setting [9]), 0.125 to 0.25 µg/mL; in series [1] (setting [10]), 0.125 to 0.25 µg/mL; in series [6], 0.93 µM (≈ 0.251 µg/mL). Besides, the half-inhibitory concentration (IC50) was over 200 µM in the series “in vitro” and over 64 µg/mL with Vero cells (setting [11]). In addition, in the series with Vero cells, the “Selectivity Index” value was over 256. The selectivity index in the series with Vero cells is recorded as over 256. Besides, the “IC50 for Vero cell viability” value in the series with Vero cells (Vero cell line) came to 16 µg/mL. The same molecule displayed an MBCBD in the series on M. tuberculosis H37Rv [7] of 0.25. In addition, the MICBD against M. tuberculosis H37Rv [7] came to 0.25. In addition, the MBC in the series on M. tuberculosis H37Rv [7] worked out at 0.25 µg/mL (≈ 0.925 µM).

Molecule `Cc1cc(C)c2cc(C(=O)Nc3ccccc3)[nH]c2c1` [Compound 4, N-Phenyl-4,6-dimethyl-1H-indole-2-carboxamide] yielded an MICMABA in series [1] of 1. This molecule gave an MIC in [1] (H37RV) of 3.8 µM. Further, the IC50 in “in vitro” was over 200 µM; with Vero cells (setting [11]), over 64 µg/mL. Also, the MBCBD with M. tuberculosis H37Rv [7] is on record as 8. In the series on M. tuberculosis H37Rv [7], this molecule returned an MICBD of 1.

For “N-(2,3,5 -methyl, 4-dimethyl)-4,6-difluoro-1H-indole-2-carboxamide”, in series [1] (H37Rv MIC relative to 1h), the “activity in comparison to the 4,6-dimethyl analog (1h)” value was “as active as 1h”. In series [1], the MICMABA came out at 0.0039. For the same molecule, the “bioavailability in vivo by serum inhibition titration” value in the series with M. tuberculosis H37Rv [8] (Balb/c mice) is given as “bioavailable in vivo”. Moreover, the “serum inhibition activity compared with isoniazid” value in the series with M. tuberculosis H37Rv [8] (isoniazid positive control) is on record as “comparable to that of isoniazid”.
